Residues, ends and D or L forms follow the SMILES beside them.
Test system: E. coli O157:H7
Assay type: cell-based, Escherichia coli
Details: screening-stage peptides tested at 1, 6, 12 and 25 μg/mL
Description: In the present invention we used the statistical thermodynamics algorithm TANGO to identify aggregation prone regions (APR) in the proteome of E. coli strain O157:H7. This yielded 3535 sequences of at least 6 amino acids in length and a TANGO score of at least 20%. In order to generate efficient aggregation seeds, we employed a previously devised tandem repeat design ^19, 21, in which the APRs are repeated once and separated by a linker. Given the length limitation on solid phase peptide synthesis with regard to yield and purity, we focused on the 1542 APRs with a length of 7 amino acids. In order to maximize the potential of these peptides to induce aggregation in E. coli, we ranked the APRs by their frequency of occurrence throughout the E. coli proteome, allowing a single amino acid mismatch, and selected the first 75 most frequently occurring sequences from this list (Table 4). In the design pattern, and in order to increase the colloidal stability of these aggregating peptides, the APRs are flanked by aggregation gatekeepers, a class of residues that was previously shown to reduce aggregation kinetics^22-24. […] To generate the tandem we used a single proline residue as a linker between the gatekeeper-flanked APRs. In addition to the 75 peptides generated in this fashion, we added 2 variants of each of the first 25 peptides in the list by randomly mutating one residue in the first APR repeat to arginine to further modulate the aggregation propensity of the peptides (Table 4). All the peptides were generated using solid phase synthesis at 200 nmole scale and dissolved in DMSO to a theoretical stock concentration of 2 mM (assuming 100% synthesis efficiency). Peptide activity on the growth of E. coli O157:H7 was measured at dilutions of the peptide corresponding to concentrations of 1, 6, 12 and 25 μg/mL. […] The Matthews Correlations Coefficient (MCC) with the measured activity was 0.1 at 12 μg/mL and 0.24 at 25 μg/mL.

Structure (SMILES)	E. coli O157 (apparent MIC in screen)
CC[C@H](C)[C@H](NC(=O)CNC(=O)[C@@H](NC(=O)[C@H](CC(C)C)NC(=O)[C@H](CCCNC(=N)N)NC(=O)[C@@H]1CCCN1C(=O)[C@H](CCCNC(=N)N)NC(=O)[C@H](CCCNC(=N)N)NC(=O)CNC(=O)[C@H](CC(C)C)NC(=O)[C@H](C)NC(=O)[C@@H](NC(=O)[C@H](CCCNC(=N)N)NC(=O)[C@@H](NC(=O)[C@H](CC(C)C)NC(=O)[C@@H](N)CCCNC(=N)N)[C@@H](C)CC)[C@@H](C)CC)[C@@H](C)CC)C(=O)N[C@@H](C)C(=O)N[C@@H](CC(C)C)C(=O)NCC(=O)N[C@@H](CCCNC(=N)N)C(=O)N[C@@H](CCCNC(=N)N)C(=O)O [Peptide P115] (H-RLIRIALGRRPRLIGIALGRR-OH; N-terminus and C-terminus assumed)	25 µg/mL
CC[C@H](C)[C@H](NC(=O)CNC(=O)[C@H](CC(C)C)NC(=O)[C@H](CCCNC(=N)N)NC(=O)[C@@H]1CCCN1C(=O)[C@H](CCCNC(=N)N)NC(=O)[C@H](CCCNC(=N)N)NC(=O)[C@H](CC(C)C)NC(=O)[C@H](C)NC(=O)[C@@H](NC(=O)[C@H](C)NC(=O)[C@@H](NC(=O)CNC(=O)[C@H](CC(C)C)NC(=O)[C@@H](N)CCCNC(=N)N)[C@@H](C)CC)C(C)C)C(=O)N[C@@H](C)C(=O)N[C@H](C(=O)N[C@@H](C)C(=O)N[C@@H](CC(C)C)C(=O)N[C@@H](CCCNC(=N)N)C(=O)N[C@@H](CCCNC(=N)N)C(=O)O)C(C)C [Peptide P33] (H-RLGIAVALRRPRLGIAVALRR-OH; N-terminus and C-terminus assumed)	25 µg/mL
CC(C)C[C@H](NC(=O)[C@H](C)NC(=O)[C@H](CCCNC(=N)N)NC(=O)[C@@H]1CCCN1C(=O)[C@H](CCCNC(=N)N)NC(=O)[C@H](CCCNC(=N)N)NC(=O)[C@H](CCCNC(=N)N)NC(=O)[C@@H](NC(=O)[C@H](C)NC(=O)[C@@H](NC(=O)[C@H](CC(C)C)NC(=O)[C@H](CC(C)C)NC(=O)[C@H](C)NC(=O)[C@@H](N)CCCNC(=N)N)[C@@H](C)O)C(C)C)C(=O)N[C@@H](CC(C)C)C(=O)N[C@H](C(=O)N[C@@H](C)C(=O)N[C@H](C(=O)N[C@@H](CC(C)C)C(=O)N[C@@H](CCCNC(=N)N)C(=O)N[C@@H](CCCNC(=N)N)C(=O)O)C(C)C)[C@@H](C)O [Peptide P116] (H-RALLTAVRRRPRALLTAVLRR-OH; N-terminus and C-terminus assumed)	6 µg/mL
CC(C)C[C@H](NC(=O)CNC(=O)[C@H](CCCNC(=N)N)NC(=O)[C@@H]1CCCN1C(=O)[C@H](CCCNC(=N)N)NC(=O)[C@H](CCCNC(=N)N)NC(=O)[C@H](CCC(N)=O)NC(=O)[C@H](CC(C)C)NC(=O)[C@H](C)NC(=O)[C@H](CC(C)C)NC(=O)[C@H](CCCNC(=N)N)NC(=O)[C@H](CC(C)C)NC(=O)CNC(=O)[C@@H](N)CCCNC(=N)N)C(=O)N[C@@H](CC(C)C)C(=O)N[C@@H](CC(C)C)C(=O)N[C@@H](C)C(=O)N[C@@H](CC(C)C)C(=O)N[C@@H](CCC(N)=O)C(=O)N[C@@H](CCCNC(=N)N)C(=O)N[C@@H](CCCNC(=N)N)C(=O)O [Peptide P99] (H-RGLRLALQRRPRGLLLALQRR-OH; N-terminus and C-terminus assumed)	25 µg/mL
CC(C)C[C@H](NC(=O)[C@H](C)NC(=O)[C@H](CC(C)C)NC(=O)[C@@H](NC(=O)[C@@H](NC(=O)[C@H](C)NC(=O)[C@H](CCCNC(=N)N)NC(=O)[C@@H]1CCCN1C(=O)[C@H](CCCNC(=N)N)NC(=O)[C@H](CCCNC(=N)N)NC(=O)[C@H](CC(C)C)NC(=O)[C@H](CC(C)C)NC(=O)[C@H](C)NC(=O)[C@H](CC(C)C)NC(=O)[C@@H](NC(=O)[C@@H](NC(=O)[C@H](C)NC(=O)[C@@H](N)CCCNC(=N)N)[C@@H](C)O)C(C)C)[C@@H](C)O)C(C)C)C(=O)N[C@@H](CC(C)C)C(=O)N[C@@H](CCCNC(=N)N)C(=O)N[C@@H](CCCNC(=N)N)C(=O)O [Peptide P29] (H-RATVLALLRRPRATVLALLRR-OH; N-terminus and C-terminus assumed)	25 µg/mL
CC(C)C[C@H](NC(=O)[C@H](C)NC(=O)[C@H](CC(C)C)NC(=O)[C@H](CCCNC(=N)N)NC(=O)[C@@H]1CCCN1C(=O)[C@H](CCCNC(=N)N)NC(=O)[C@H](CCCNC(=N)N)NC(=O)[C@H](CC(C)C)NC(=O)[C@H](CC(C)C)NC(=O)[C@H](CC(C)C)NC(=O)[C@H](CCCNC(=N)N)NC(=O)[C@H](CC(C)C)NC(=O)[C@H](C)NC(=O)[C@H](CC(C)C)NC(=O)[C@@H](N)CCCNC(=N)N)C(=O)N[C@@H](C)C(=O)N[C@@H](CC(C)C)C(=O)N[C@@H](CC(C)C)C(=O)N[C@@H](CC(C)C)C(=O)N[C@@H](CCCNC(=N)N)C(=O)N[C@@H](CCCNC(=N)N)C(=O)O [Peptide P79] (H-RLALRLLLRRPRLALALLLRR-OH; N-terminus and C-terminus assumed)	12 µg/mL
CC(C)C[C@H](NC(=O)CNC(=O)[C@@H](NC(=O)[C@H](Cc1ccccc1)NC(=O)[C@H](CC(C)C)NC(=O)[C@H](CCCNC(=N)N)NC(=O)[C@@H]1CCCN1C(=O)[C@H](CCCNC(=N)N)NC(=O)[C@H](CCCNC(=N)N)NC(=O)[C@H](CC(C)C)NC(=O)[C@H](C)NC(=O)[C@H](CC(C)C)NC(=O)CNC(=O)[C@@H](NC(=O)[C@H](Cc1ccccc1)NC(=O)[C@H](CC(C)C)NC(=O)[C@@H](N)CCCNC(=N)N)C(C)C)C(C)C)C(=O)N[C@@H](C)C(=O)N[C@@H](CC(C)C)C(=O)N[C@@H](CCCNC(=N)N)C(=O)N[C@@H](CCCNC(=N)N)C(=O)O [Peptide P26] (H-RLFVGLALRRPRLFVGLALRR-OH; N-terminus and C-terminus assumed)	25 µg/mL
CC(C)C[C@H](NC(=O)CNC(=O)[C@@H](NC(=O)[C@H](CC(C)C)NC(=O)[C@H](CCCNC(=N)N)NC(=O)[C@@H]1CCCN1C(=O)[C@H](CCCNC(=N)N)NC(=O)[C@H](CCCNC(=N)N)NC(=O)CNC(=O)[C@H](CC(C)C)NC(=O)[C@@H](NC(=O)[C@H](CC(C)C)NC(=O)CNC(=O)[C@@H](NC(=O)[C@H](CC(C)C)NC(=O)[C@@H](N)CCCNC(=N)N)C(C)C)C(C)C)C(C)C)C(=O)N[C@H](C(=O)N[C@@H](CC(C)C)C(=O)NCC(=O)N[C@@H](CCCNC(=N)N)C(=O)N[C@@H](CCCNC(=N)N)C(=O)O)C(C)C [Peptide P50] (H-RLVGLVLGRRPRLVGLVLGRR-OH; N-terminus and C-terminus assumed)	6 µg/mL
CC(C)C[C@H](NC(=O)[C@H](C)NC(=O)[C@@H](NC(=O)[C@H](CC(C)C)NC(=O)[C@H](CCC(N)=O)NC(=O)[C@H](CCCNC(=N)N)NC(=O)[C@@H]1CCCN1C(=O)[C@H](CCCNC(=N)N)NC(=O)[C@H](CCCNC(=N)N)NC(=O)[C@@H](NC(=O)[C@H](CC(C)C)NC(=O)[C@H](CCCNC(=N)N)NC(=O)[C@H](C)NC(=O)[C@@H](NC(=O)[C@H](CC(C)C)NC(=O)[C@H](CCC(N)=O)NC(=O)[C@@H](N)CCCNC(=N)N)C(C)C)C(C)C)C(C)C)C(=O)N[C@@H](CC(C)C)C(=O)N[C@H](C(=O)N[C@@H](CCCNC(=N)N)C(=O)N[C@@H](CCCNC(=N)N)C(=O)O)C(C)C [Peptide P92] (H-RQLVARLVRRPRQLVALLVRR-OH; N-terminus and C-terminus assumed)	6 µg/mL
CC(C)C[C@H](NC(=O)[C@H](C)NC(=O)[C@H](CCCNC(=N)N)NC(=O)[C@@H]1CCCN1C(=O)[C@H](CCCNC(=N)N)NC(=O)[C@H](CCCNC(=N)N)NC(=O)[C@H](CC(C)C)NC(=O)[C@H](CC(C)C)NC(=O)[C@H](C)NC(=O)[C@@H](NC(=O)[C@H](C)NC(=O)[C@H](CC(C)C)NC(=O)[C@H](C)NC(=O)[C@@H](N)CCCNC(=N)N)C(C)C)C(=O)N[C@@H](C)C(=O)N[C@H](C(=O)N[C@@H](C)C(=O)N[C@@H](CC(C)C)C(=O)N[C@@H](CC(C)C)C(=O)N[C@@H](CCCNC(=N)N)C(=O)N[C@@H](CCCNC(=N)N)C(=O)O)C(C)C [Peptide P12] (H-RALAVALLRRPRALAVALLRR-OH; N-terminus and C-terminus assumed)	25 µg/mL
CC[C@H](C)[C@H](NC(=O)[C@H](CC(C)C)NC(=O)[C@H](CC(C)C)NC(=O)[C@H](C)NC(=O)[C@H](CCCNC(=N)N)NC(=O)[C@@H]1CCCN1C(=O)[C@H](CCCNC(=N)N)NC(=O)[C@H](CCCNC(=N)N)NC(=O)[C@H](CC(C)C)NC(=O)[C@H](CC(C)C)NC(=O)[C@@H](NC(=O)[C@@H](NC(=O)[C@H](CCCNC(=N)N)NC(=O)[C@H](CC(C)C)NC(=O)[C@H](C)NC(=O)[C@@H](N)CCCNC(=N)N)[C@@H](C)CC)[C@@H](C)O)C(=O)N[C@H](C(=O)N[C@@H](CC(C)C)C(=O)N[C@@H](CC(C)C)C(=O)N[C@@H](CCCNC(=N)N)C(=O)N[C@@H](CCCNC(=N)N)C(=O)O)[C@@H](C)O [Peptide P123] (H-RALRITLLRRPRALLITLLRR-OH; N-terminus and C-terminus assumed)	25 µg/mL

Source: patent publication US11872262B2, “Means and methods for treating bacterial infections” (VIB VZW, priority 2017, dated 2024)
